Results taken from ChEMBL document CHEMBL4011587, “Design, synthesis and evaluation of novel ferulic acid-O-alkylamine derivatives as potential multifunctional agents for the treatment of Alzheimer's disease” (Eur J Med Chem, 2017).
The source made the active and inactive calls. The calls are words filed in the database; no cut-off is given here.

Columns and labels:
[1] = biological target: Acetylcholinesterase (Electrophorus electricus, UniProt O42275); assay: Inhibition of electric eel AChE using acetylthiocholine chloride as substrate measured after 15 mins by Ellman's method; format: ADME
[2] = biological target: Cholinesterase (Equus caballus, UniProt P81908); assay: Inhibition of equine serum BuChE using butyrylthiocholine chloride as substrate measured after 15 mins by Ellman's method
[3] = Selectivity index, ratio of IC50 for electric eel AChE to IC50 for equine serum BuChE
[4] = biological target: T1, Acetylcholinesterase (Rattus norvegicus, UniProt P37136); assay: Inhibition of AChE in rat cortex homogenates using acetylthiocholine chloride as substrate measured after 15 mins by Ellman's method; format: ADME
T1 sequence (P37136 whole entry): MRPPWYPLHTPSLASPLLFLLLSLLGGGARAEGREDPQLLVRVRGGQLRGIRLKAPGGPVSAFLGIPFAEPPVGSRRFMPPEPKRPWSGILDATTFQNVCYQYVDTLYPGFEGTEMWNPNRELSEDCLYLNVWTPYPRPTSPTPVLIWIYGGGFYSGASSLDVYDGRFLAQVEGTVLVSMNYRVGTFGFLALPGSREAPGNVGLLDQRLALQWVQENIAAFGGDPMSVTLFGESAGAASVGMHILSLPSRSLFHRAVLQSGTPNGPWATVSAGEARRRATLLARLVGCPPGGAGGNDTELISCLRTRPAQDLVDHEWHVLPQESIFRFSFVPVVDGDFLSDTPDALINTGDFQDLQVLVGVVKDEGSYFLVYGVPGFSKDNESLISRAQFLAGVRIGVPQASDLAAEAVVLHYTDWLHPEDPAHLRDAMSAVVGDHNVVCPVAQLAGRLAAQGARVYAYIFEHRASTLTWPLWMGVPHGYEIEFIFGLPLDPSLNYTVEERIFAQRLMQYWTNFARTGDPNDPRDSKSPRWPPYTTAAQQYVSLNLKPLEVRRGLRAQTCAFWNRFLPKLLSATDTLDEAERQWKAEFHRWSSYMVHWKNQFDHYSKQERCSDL

[5] = Inhibition of BuChE in rat serum using butyrylthiocholine chloride as substrate measured after 15 mins by Ellman's method; settings: 0.25 h
[6] = biological target: Acetylcholinesterase (Homo sapiens, UniProt P22303); assay: Inhibition of AChE in human erythrocytes using acetylthiocholine chloride as substrate measured after 15 mins by Ellman's method; format: cell-based
[7] = biological target: Cholinesterase (Homo sapiens, UniProt P06276); assay: Inhibition of BuChE in human serum using butyrylthiocholine chloride as substrate measured after 15 mins by Ellman's method
[8] = Selectivity index, ratio of IC50 for AChE in human erythrocytes to IC50 for BuChE in human serum
[9] = Selectivity ratio of IC50 for AChE in human erythrocytes to IC50 for electric eel AChE; format: ADME, cell-based
[10] = biological target: Amyloid-beta precursor protein (Homo sapiens) (UniProt P05067); assay: Inhibition of amyloid beta (1 to 42) (unknown origin) self-aggregation at 25 uM after 24 hrs by thioflavin-T fluorescence assay relative to control
[11] = biological target: Amyloid-beta precursor protein (Homo sapiens) (UniProt P05067); assay: Inhibition of amyloid beta (1 to 42) (unknown origin) self-aggregation at 50 uM after 24 hrs by thioflavin-T fluorescence assay relative to control
[12] = biological target: Amyloid-beta precursor protein (Homo sapiens) (UniProt P05067); assay: Inhibition of amyloid beta (1 to 42) (unknown origin) self-aggregation at 12.5 uM after 24 hrs by thioflavin-T fluorescence assay relative to control
[13] = biological target: Amyloid-beta precursor protein (Homo sapiens) (UniProt P05067); assay: Disaggregation of amyloid beta (1 to 42) (unknown origin) self aggregation at 25 uM after 24 hrs by thioflavin-T assay relative to control
[14] = biological target: Amyloid-beta precursor protein (Homo sapiens) (UniProt P05067); assay: Inhibition of amyloid beta (1 to 42) (unknown origin) fibril formation at 25 uM after 24 hrs by transmission electron microscopic method
[15] = Antioxidant activity assessed as inhibition of AAPH-induced peroxyl radical generation measured as trolox equivalent at 1 to 10 uM preincubated for 15 mins followed by AAPH addition measured every minute for 90 mins by ORAC-FL assay; format: functional
[16] = system: PC-12; assay: Cytotoxicity against rat PC12 cells assessed as cell viability up to 10 uM after 48 hrs by MTT assay; format: cell-based; settings: pc-12, 48 h
[17] = Cytotoxicity against rat PC12 cells assessed as cell viability at 100 uM after 48 hrs by MTT assay relative to control; format: cell-based, PC-12; settings: read-out: Activity
[18] = biological target: Amyloid-beta precursor protein (Homo sapiens) (UniProt P05067); assay: Inhibition of amyloid beta (1 to 42) (unknown origin) self-aggregation after 24 hrs by thioflavin-T fluorescence assay
[19] = system: PC-12; assay: Protection against H2O2-induced oxidative injury in rat PC12 cells assessed as increase in cell viability pretreated for 2 hrs followed by H2O2 challenge for 30 mins measured after 24 hrs by MTT assay; format: functional, cell-based
[20] = system: PC-12; assay: Protection against H2O2-induced oxidative injury in rat PC12 cells assessed as cell viability at 10 uM pretreated for 2 hrs followed by H2O2 challenge for 30 mins measured after 24 hrs by MTT assay (reference value: 50.7%); format: functional; settings: read-out: Activity
[21] = system: PC-12; assay: Protection against H2O2-induced oxidative injury in rat PC12 cells assessed as cell viability at 1 uM pretreated for 2 hrs followed by H2O2 challenge for 30 mins measured after 24 hrs by MTT assay (reference value: 50.7%); format: functional; settings: read-out: Activity
[22] = Permeability of the compound in PBS/EtOH at 100 ug/ml after 18 hrs by PAMPA-BBB assay
[23] = biological target: Amyloid-beta precursor protein (Homo sapiens) (UniProt P05067); assay: Disaggregation of amyloid beta (1 to 42) (unknown origin) self aggregation at 25 uM after 24 hrs by transmission electron microscopic method
[24] = system: Mus musculus; assay: Acute toxicity in Kunming mouse up to 1000 mg/kg, po measured after 4 hrs up to 14 days; format: organism-based; settings: in vivo
[25] = system: Mus musculus; assay: Acute toxicity in Kunming mouse assessed as effect on fur sleekness up to 1000 mg/kg, po measured after 4 hrs up to 14 days; format: organism-based; settings: in vivo
[26] = system: Mus musculus; assay: Acute toxicity in Kunming mouse assessed as effect on water consumption up to 1000 mg/kg, po measured after 4 hrs up to 14 days; format: organism-based; settings: in vivo
[27] = system: Mus musculus; assay: Acute toxicity in Kunming mouse assessed as effect on food consumption up to 1000 mg/kg, po measured after 4 hrs up to 14 days; format: organism-based; settings: in vivo
[28] = system: Mus musculus; assay: Acute toxicity in Kunming mouse assessed as change in body weight up to 1000 mg/kg, po measured after 4 hrs up to 14 days; format: organism-based; settings: in vivo
[29] = system: Mus musculus; assay: Acute toxicity in Kunming mouse assessed as heart damage up to 1000 mg/kg, po measured after 14 days by macroscopic method; format: organism-based; settings: in vivo, 336 h
[30] = system: Mus musculus; assay: Acute toxicity in Kunming mouse assessed as liver damage up to 1000 mg/kg, po measured after 14 days by macroscopic method; format: organism-based; settings: in vivo, 336 h
[31] = system: Mus musculus; assay: Acute toxicity in Kunming mouse assessed as kidney damage up to 1000 mg/kg, po measured after 14 days by macroscopic method; format: organism-based; settings: in vivo, 336 h
[32] = system: Mus musculus; assay: Reversal of scopolamine-induced memory deficit in Kunming mouse assessed as step down latency time at 21.3 mg/kg, po treated for 1 hr before training followed by scopolamine challenge 30 mins before training measured 24 hrs after training trial by passive avoidance test (reference value: 50.5 sec); format: functional
[33] = system: Mus musculus; assay: Reversal of scopolamine-induced memory deficit in Kunming mouse assessed as increase in step down latency time administered orally treated for 1 hr before training followed by scopolamine challenge 30 mins before training measured 24 hrs after training trial by passive avoidance test; format: functional

Chain of Amyloid-beta precursor protein (Homo sapiens) (P05067 whole entry): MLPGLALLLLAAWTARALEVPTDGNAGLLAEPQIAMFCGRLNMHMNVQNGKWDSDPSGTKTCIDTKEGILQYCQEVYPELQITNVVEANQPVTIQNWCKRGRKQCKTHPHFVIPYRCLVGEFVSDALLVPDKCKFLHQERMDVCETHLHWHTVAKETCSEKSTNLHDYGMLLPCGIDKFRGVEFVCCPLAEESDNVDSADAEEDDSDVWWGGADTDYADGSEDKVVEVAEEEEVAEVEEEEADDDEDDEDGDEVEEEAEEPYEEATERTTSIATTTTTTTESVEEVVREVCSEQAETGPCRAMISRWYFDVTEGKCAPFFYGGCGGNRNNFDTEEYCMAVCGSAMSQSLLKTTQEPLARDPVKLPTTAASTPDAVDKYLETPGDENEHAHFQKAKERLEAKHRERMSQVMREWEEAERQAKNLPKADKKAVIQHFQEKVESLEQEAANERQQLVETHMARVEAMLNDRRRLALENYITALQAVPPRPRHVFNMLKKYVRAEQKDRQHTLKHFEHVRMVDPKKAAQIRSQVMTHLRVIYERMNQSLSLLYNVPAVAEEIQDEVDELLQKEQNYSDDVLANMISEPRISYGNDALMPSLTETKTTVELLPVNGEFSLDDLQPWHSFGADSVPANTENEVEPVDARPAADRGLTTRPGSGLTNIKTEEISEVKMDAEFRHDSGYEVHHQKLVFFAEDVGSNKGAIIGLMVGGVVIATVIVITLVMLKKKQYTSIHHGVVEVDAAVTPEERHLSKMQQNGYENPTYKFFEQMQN
Chain of Cholinesterase (Homo sapiens, UniProt P06276) (P06276 whole entry): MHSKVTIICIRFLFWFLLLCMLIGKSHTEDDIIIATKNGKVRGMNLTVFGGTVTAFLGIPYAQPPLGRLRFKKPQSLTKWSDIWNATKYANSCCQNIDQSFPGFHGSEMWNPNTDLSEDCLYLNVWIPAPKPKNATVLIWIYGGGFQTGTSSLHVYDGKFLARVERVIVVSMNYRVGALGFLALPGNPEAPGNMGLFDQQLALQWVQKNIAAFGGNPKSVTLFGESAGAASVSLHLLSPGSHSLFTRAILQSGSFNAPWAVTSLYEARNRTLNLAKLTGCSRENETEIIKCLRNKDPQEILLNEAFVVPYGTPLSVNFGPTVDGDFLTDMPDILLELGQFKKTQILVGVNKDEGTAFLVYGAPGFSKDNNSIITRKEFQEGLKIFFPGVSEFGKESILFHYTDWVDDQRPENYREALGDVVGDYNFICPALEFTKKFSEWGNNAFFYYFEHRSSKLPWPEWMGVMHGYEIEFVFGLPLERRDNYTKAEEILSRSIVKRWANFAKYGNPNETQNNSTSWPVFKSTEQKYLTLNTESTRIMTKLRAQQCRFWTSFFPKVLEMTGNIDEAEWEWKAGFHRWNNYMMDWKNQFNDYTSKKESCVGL
Chain of Cholinesterase (Equus caballus, UniProt P81908) (P81908 whole entry): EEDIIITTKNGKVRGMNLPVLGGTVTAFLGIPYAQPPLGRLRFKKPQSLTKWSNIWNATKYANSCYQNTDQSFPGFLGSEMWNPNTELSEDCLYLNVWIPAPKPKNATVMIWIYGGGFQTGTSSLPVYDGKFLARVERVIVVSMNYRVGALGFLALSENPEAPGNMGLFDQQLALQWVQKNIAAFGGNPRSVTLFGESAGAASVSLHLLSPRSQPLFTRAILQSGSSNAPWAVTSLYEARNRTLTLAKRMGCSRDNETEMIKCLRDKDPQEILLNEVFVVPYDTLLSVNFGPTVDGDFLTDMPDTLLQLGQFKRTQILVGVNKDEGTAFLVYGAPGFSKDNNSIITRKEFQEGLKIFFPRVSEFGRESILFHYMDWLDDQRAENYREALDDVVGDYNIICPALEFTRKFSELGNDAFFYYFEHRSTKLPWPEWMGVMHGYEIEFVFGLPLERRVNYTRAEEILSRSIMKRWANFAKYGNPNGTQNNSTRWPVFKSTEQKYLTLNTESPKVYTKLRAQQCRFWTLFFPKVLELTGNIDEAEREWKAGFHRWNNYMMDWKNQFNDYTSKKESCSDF
Chain of Acetylcholinesterase (Electrophorus electricus, UniProt O42275) (O42275 whole entry): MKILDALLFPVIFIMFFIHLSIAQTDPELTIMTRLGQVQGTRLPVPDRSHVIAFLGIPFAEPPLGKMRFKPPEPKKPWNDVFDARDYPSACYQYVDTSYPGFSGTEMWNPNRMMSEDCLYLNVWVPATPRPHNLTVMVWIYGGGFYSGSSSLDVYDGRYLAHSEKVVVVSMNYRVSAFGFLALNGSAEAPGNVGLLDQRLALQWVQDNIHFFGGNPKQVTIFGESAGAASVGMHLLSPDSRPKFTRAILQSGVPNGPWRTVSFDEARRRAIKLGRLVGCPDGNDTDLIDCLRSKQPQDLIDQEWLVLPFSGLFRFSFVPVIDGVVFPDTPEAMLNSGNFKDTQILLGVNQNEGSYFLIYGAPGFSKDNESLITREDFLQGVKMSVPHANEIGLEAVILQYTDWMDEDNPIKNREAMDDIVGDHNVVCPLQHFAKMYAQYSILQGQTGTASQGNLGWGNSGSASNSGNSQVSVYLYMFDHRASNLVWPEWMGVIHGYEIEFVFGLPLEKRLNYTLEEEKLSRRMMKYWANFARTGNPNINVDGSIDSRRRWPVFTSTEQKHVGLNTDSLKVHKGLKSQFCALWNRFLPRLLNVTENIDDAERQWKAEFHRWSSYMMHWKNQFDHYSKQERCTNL
Chain of Acetylcholinesterase (Homo sapiens, UniProt P22303) (P22303 whole entry): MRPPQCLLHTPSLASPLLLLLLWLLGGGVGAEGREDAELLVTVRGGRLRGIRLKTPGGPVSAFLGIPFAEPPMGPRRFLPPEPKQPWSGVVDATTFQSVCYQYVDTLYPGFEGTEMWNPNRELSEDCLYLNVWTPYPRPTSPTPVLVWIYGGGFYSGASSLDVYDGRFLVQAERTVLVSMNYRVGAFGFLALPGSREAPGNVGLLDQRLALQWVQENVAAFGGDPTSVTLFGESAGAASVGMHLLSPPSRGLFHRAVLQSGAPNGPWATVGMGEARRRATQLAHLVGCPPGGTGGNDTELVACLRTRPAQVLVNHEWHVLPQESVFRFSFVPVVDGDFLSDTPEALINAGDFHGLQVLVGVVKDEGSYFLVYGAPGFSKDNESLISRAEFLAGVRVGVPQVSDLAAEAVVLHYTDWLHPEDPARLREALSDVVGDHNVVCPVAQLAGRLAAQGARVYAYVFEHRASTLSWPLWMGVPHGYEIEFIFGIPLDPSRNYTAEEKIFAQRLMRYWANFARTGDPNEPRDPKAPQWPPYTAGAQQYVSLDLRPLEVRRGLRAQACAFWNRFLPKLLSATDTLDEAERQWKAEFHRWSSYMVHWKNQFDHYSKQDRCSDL

COc1cc(/C=C/C(=O)N2CCC(Cc3ccccc3)CC2)ccc1OCCCCN1CCc2ccccc2C1
IC50 [1]: 2130 nM
IC50 [2]: 21 nM
Ratio IC50 [3]: 101
IC50 [4]: 1800 nM
IC50 [5]: 8630 nM
IC50 [6]: 3820 nM
IC50 [7]: 70 nM
Ratio IC50 [8]: 54.6
Ratio IC50 [9]: 2 to 4
inhibition [10]: 50.8%
inhibition [11]: 68.7%
inhibition [12]: 31.2%
Activity [13]: 38.7%
inhibition [14]: Active
Activity [15]: 0.55 equiv
Activity [16]: Non-Toxic
viability at 48 h, 100 µM [17]: 85.8%
inhibition [18]: Dose-dependent effect
Activity [19]: Dose-dependent effect
viability at 10 µM [20]: 76.7%
viability at 1 µM [21]: 58.6%
Papp at 18 h, 100 ug/ml [22]: 18.4 ×10⁻⁶ cm/s
Activity [23]: Active
Activity [24]: Non-Toxic
Activity [25]: Non-Toxic
Activity [26]: Non-Toxic
Activity [27]: Non-Toxic
Activity [28]: Non-Toxic
Activity [29]: Non-Toxic
Activity [30]: Non-Toxic
Activity [31]: Non-Toxic
Time [32]: 182.8 s
Activity [33]: Dose-dependent effect
